# Reference: patent publication US8101653B2, “Therapeutic compositions” (BTG International Limited, priority 1997, dated 2012)
# What was measured:
# whole brain GABA levels = assay: Effect of increased blood D-β-hydroxybutyrate on whole brain GABA levels; type: in vivo, rat; conditions: 120 minutes after administration as in Example 3; t=0 level 191
# Procedure: To assess the effect of D-β-hydroxybutyrate on whole brain GABA levels, and thus provide an indication of antiepileptic effect of ketone body or precursor treatment aimed at increasing blood ketone body levels, whole rat brain was frozen at set times after administration of D-β-hydroxybutyrate as described in Example 3, GBA was assayed using standard HPLC technique and related to protein content using standard protein assay.
# [1] = tested on: primary hippocampal cultures; assay: Effect of D-β-hydroxybutyrate on β-amyloid toxicity to hippocampal cells in vitro (microisland cultures); type: cell-based, Wistar; conditions: for neuronal cell number per microisland: increase from a mean of 30
# Procedure: The serum free medium used from 0 to day 4 contained Neurobasal medium with B27 supplement diluted 50 fold (Life Technology, Gaithersburg, Md.) to which was added: 0.5 mM L-glutamine, 25 μM Na L-glutamate, 100 U/ml penicillin and 100 μg/ml streptomycin. After day 4, DMEM/F12 medium containing 5 μM insulin, 30 nM 1-thyroxine, 20 nM progesterone, 30 nM Na selenite 100 U/ml penicillin and 100 μg/ml streptomycin were used.
# The primary hippocampal cultures were removed from Wistar embryos on day 18 and dispersed by gentle aggitation in a pipette. The suspension was centrifuge at 1,500×g for 10 min and the supernatant discarded. New media was make 0.4-0.5×10^6 cells/ml. Ten μl of this suspension was pipetted into the center of poly D-lysine coated culture wells and the plates incubated at 38° C. for 4 hrs and then 400 μl of fresh Neurobasal media was added. After 2 days of incubation, half of the media was exchanged for fresh media and the incubation continued for 2 more days. After day 4, the medium was changed with DMEM/F12 medium containing 5 μM insulin, 30 nM 1-thyroxine, 20 nM progestrone, 30 nM Na selenite 100 U/ml penicillin and 100 μg/ml streptomycin. […] These media were exchanged 2 days later (day 8) and the cells were fixed on day 10 and stained with anti MAP2 (Boehringer Manheim, Indianapolis, Id.) to visual neurons and vimentin and GFAP (Boehringer) to visualize glial cells.
# [2] = cited from earlier work
# septal cells = conditions: 1 μm Aβ142 for 24 hours; cited from earlier work
# [3] = cited from earlier work; remark: listed apart in the source
# [4] = Rats fed triolide in 'Hob-Nob' biscuit, tolerability over two weeks; type: in vivo; conditions: two rats fed approximately 1.5 g triolide each in biscuit, after two weeks
# [5] = Oral administration of triolide in yoghurt to rats, plasma D-β-hydroxybutyrate and tolerability; type: in vivo, Wistar rats; conditions: over at least 3 hours
# Procedure: The ability of orally administered triolide to raise blood ketone levels was investigated as follows. The day before the experiment commenced, 12 Wistar rats weighing 316±10 g were placed in separate cages. They had no access to food for 15 hours prior to presentation with triolide containing compositions, but water was provided ad libitum.
# On the morning of the experiment 0.64 g of triolide was mixed with 5 g Co-op brand Black Cherry yoghurt in separate feeding bowls for […] of the rats. The memaining 3 rats were given 5 g of the yoghurt without the triolide as controls. The yoghurt containing bowls were placed in the cages and the rats timed while they ate. Two of the three control rats ate all the yoghurt and four of the six triolide yoghurt rats ate approximately half the provided amount. The remaining […] rats slept.
# Control rats (n=2) were killed at 60 and 180 minutes after ingestion of yoghurt while triolide fed rats were killed at 80, 140, 150 and 155 minutes. Blood samples were taken for assay of D-β-hydroxybutyrate. […] Blood levels of (R)-3-hydroxyburyrate were measured using a […] assay of Anal. Biochem (1983) 131, p 478-482, 1.0 ml of a solution made up from 2-amino-2-methyl-1-propanol (100 mM pH 9.9, 0.094 g/10 ml), NAD^− (30 mM. 0.199 g/10 ml) and EDTA (4 mM, 0.015 g/10 ml) was added to each of a number of cuvettes and 4 μl sample or D-β-hydroxybutyrate control.
# [6] = tested on: liver cytosolic [NAD]/[NADH]; conditions: after feeding/administration; 1,3 butandiol decrease from 1500; cited from earlier work
# [7] = tested on: cerebral circulation and regional vasomotor reflexes; conditions: in vivo; cited from earlier work
# [8] = room temperature, unesterified state; cited from earlier work
# [9] = liquid diet supplemented with 47% of its caloric content; cited from earlier work
# [10] = presence of D-β-hydroxybutyrate, whether β142 was present or not
# [11] = intravenous infusion, normal human subjects and patients
compound,measurement,setting,value
"C[C@@H](O)CC(=O)O [D-β-hydroxybutyrate, (R)-3-hydroxybutyric acid]",whole brain GABA levels,whole brain GABA levels,466 pmoles/μg protein
same,neuronal cell number per microisland,[1]; D-β-hydroxybutyrate added to cultures containing amyloid β142,70 cells per microisland
same,neuronal cell number per microisland,"[1]; Na D-β-hydroxybutyrate 8 mM, no amyloid",70 cells per microisland
same,length of axons,[1]; [10],increased
same,number of dendritic outgrowths,[1]; [10],increased
same,pKa,[2],4.4
"amyloid β142: amyloid β peptide (Sigma), toxic to hippocampal neurons",activity of choline acetyl transferase,septal cells,no decrease
same,decrease in acetyl choline production,septal cells,over five fold
C[C@@H](O)CC(=O)[O-].[Na+] [sodium salts of D-β-hydroxybutyrate],toxicity,"[3]; human, in vivo, iv",non-toxic
same,"effect on glucose, free fatty acids and glycerol concentration",[3]; [11],capable of decreasing
same,effect on leucine oxidation,[3]; [11],ineffective
"C[C@@H]1CC(=O)O[C@H](C)CC(=O)O[C@H](C)CC(=O)O1 [triolide, (R,R,R)-4,8,12-trimethyl-1,5,9-trioxadodeca-2,6,10-trione]",ill effects,[4],no ill effects
same,ill effects from ingestion,[5],no ill effects
CCO [ethanol],liver cytosolic [NAD]/[NADH],[6],around 200
CC(O)CC(=O)[O-].[Na+] (centres unmarked) [sodium hydroxybutyrate],increase of cerebral circulation and regional vasomotor reflexes,[7],up to 40%
CC(=O)CC(=O)O [acetoacetate],half time of spontaneous decarboxylation to acetone,[8],about 30 days
"CC(O)CCO (racemic) [racemic 1,3 butandiol, 1,3 butandiol]",liver cytosolic [NAD]/[NADH],[6],1000
same,blood D-β hydroxybutyrate concentration,[9],0.98 mM
same,blood acetoacetate concentration,[9],0.33 mM
same,rise of blood ketone concentration,[9],about 10 fold
